Experimental findings from US6337344B1, “Indole derivatives as inhibitors or factor Xa” (Aventis Pharma Deutschland GmbH, priority 1997, dated 2002) are described below.

Structures can show the parent of a compound that is named as a salt.

T1 sequence (P00742 235-488 limits assumed): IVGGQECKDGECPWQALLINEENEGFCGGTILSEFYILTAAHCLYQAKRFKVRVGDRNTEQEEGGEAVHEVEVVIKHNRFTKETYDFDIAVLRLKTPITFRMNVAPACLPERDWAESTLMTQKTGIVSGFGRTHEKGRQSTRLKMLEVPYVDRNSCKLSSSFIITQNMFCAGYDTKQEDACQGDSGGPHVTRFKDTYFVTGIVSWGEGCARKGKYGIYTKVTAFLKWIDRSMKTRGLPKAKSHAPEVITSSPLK
T1 sequence (P00742 41-179 partner limits assumed): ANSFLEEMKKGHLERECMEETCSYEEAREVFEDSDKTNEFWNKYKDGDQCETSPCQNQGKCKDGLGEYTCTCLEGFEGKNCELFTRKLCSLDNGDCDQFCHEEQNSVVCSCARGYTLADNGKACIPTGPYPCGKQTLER

The first data set has as its target T1, human factor Xa (Homo sapiens, UniProt P00742).
T1 construct: purchased Enzyme Research Laboratories, Inc; South Bend, Ind
As to the kind of experiment: Factor Xa assay (Test 1, a.), chromogenic substrate S-2765. It counts as biochemical. The procedure: Purified enzymes are used in chromogenic assays. To determine the inhibition constant Ki, the IC50 value is corrected for competition with substrate using the formula
Ki'IC50×(1/{1+((substrate concentration)/substrate Km)})
wherein Km is the Michaelis-Menten constant (Chen and Prusoff, Biochem. Pharmacol. 22 (1973), […] which is incorporated herein by reference).
TBS-PEG buffer (50 mM Tris-Cl, pH 7.8, 200 mM NaCl, 0.05% (w/v) PEG-8000, 0.02% (w/v) NaN3) is used for this assay.
The assay is performed by pre-incubating the compound of formula I plus enzyme for 10 min. Then the assay is initiated by adding substrate to obtain a final volume of 100 μl. The initial velocity of chromogenic substrate hydrolysis is measured by the change in absorbance at 405 nm using a Bio-tek Instruments kinetic plate reader (Ceres UV900HDi) at 25° C. during the linear portion of the time course (usually 1.5 min after addition of substrate). The concentration of inhibitor that causes a 50% decrease in the rate of substrate hydrolysis is predicted by linear regression after plotting the relative rates of hydrolysis (compared to the uninhibited control) versus the log of the concentration of the compound of formula I. The enzyme concentration is 0.5 nM and substrate concentration is 140 μM.
The inhibition constants were determined as described above (Test 1, a., Factor Xa Assay).
With `N=C(N)NCCC[C@H](NC(=O)c1cc2ccccc2n1Cc1ccc(C(=N)N)cc1)C(N)=O` [Example 81, 1-(4-Amidinobenzyl)-1H-indole-2-carbonyl-L-arginyl amide trifluoroacetic acid salt], the Ki (in general, a dissociation constant, usually derived from enzyme kinetics or from competition with a known ligand) stood at 63000 nM.
The same measure, in the same setting: to `Cc1cccc2c1cc(C(=O)NCc1cccc(C(=N)N)c1)n2Cc1cccc(C(=N)N)c1.O=C(O)C(F)(F)F.O=C(O)C(F)(F)F` [Example 47, 1-(3-Amidino-benzyl)-4-methyl-1H-indole-2-carboxylic acid 3-amidino-benzyl amide trifluoroacetic acid salt] belongs 7 nM; to `C[C@@H](NC(=O)c1cc2cc(OCc3ccccc3)ccc2n1Cc1cccc(C(N)=S)c1)c1ccccc1` [21(4), (R)-5-Benzyloxy-1-(3-thiocarbamoyl-benzyl)-1H-indole-2-carboxylic acid (1-phenyl-ethyl)amide], 4800 nM.
The same measure, in the same setting: to `C[N+](C)(C)c1ccc(CNC(=O)c2c(Cl)c3ccccc3n2Cc2cccc(C(=N)N)c2)cc1` [Example 106] belongs 40 nM.
As to `CC(NC(=O)c1cc2ccccc2n1Cc1cccc(C(=N)N)c1)c1cc[n+](C)cc1` (racemic) [Example 2, (RS)-4-(1-{[1-(3-Amidino-benzyl)-1H-indole-2-carbonyl]-amino}-ethyl)-1-methylpyridinium trifluoroacetate trifluoroacetic acid salt, trifluoroacetate trifluoroacetic acid …], the Ki was 100 nM. Compared with the last compound, the Ki is about 2.5-fold higher.
On the same count and under the same terms, in the case of `C[N+](C)(C)c1ccc(CNC(=O)c2cc3ccccc3n2Cc2cccc(C(=N)N)c2)cc1` [Example 4, [4-({[1-(3-Amidino-benzyl)-1H-indole-2-carbonyl]-amino}-methyl)-phenyl]-trimethyl-ammonium trifluoroacetate trifluoroacetic acid salt, trifluoroacetate trifluoroacetic acid …] it was 90 nM; in that of `COC(=O)c1cccc(CNC(=O)c2cc3c(O)cccc3n2Cc2cccc(C(=N)N)c2)c1` [Example 132], 2000 nM.
As to `Cc1cc(CNC(=O)c2cc3c(O)cccc3n2Cc2cccc(C(=N)N)c2)cc(C(F)(F)F)c1` [Example 112], the Ki was 13 nM. This Ki is about 150-fold lower than that of the compound before.
Same read-out and setting: in the case of `N=C(N)c1ccc(C(=O)N2CCc3c(n(Cc4cccc(C(=N)N)c4)c4ccccc34)C2)cc1` [Example 84, 2-(4-Amidino-benzoyl)-9-(3-amidino-benzyl)-1,2,3,4-tetrahydro-9H-pyrido[3,4-b]indole trifluoroacetic acid salt] it was 900 nM; in that of `Cc1cccc2c1cc(C(=O)NCc1ccc([N+](C)(C)C)cc1)n2Cc1cccc(C(=N)N)c1.O=C(O)C(F)(F)F.O=C([O-])C(F)(F)F` [Example 35, [4-({[1-(3-Amidino-benzyl)-4-methyl-1H-indole-2-carbonyl]-amino}-methyl)-phenyl]-trimethyl-ammonium trifluoroacetate trifluoroacetic acid salt, trifluoroacetate trifluoroacetic acid …], 9 nM; in that of `COc1cccc2c1cc(C(=O)NC(c1ccccc1)c1cc[n+](C)cc1)n2Cc1cccc(C(=N)N)c1.O=C(O)C(F)(F)F.O=C([O-])C(F)(F)F` (racemic) [Example 24, (RS)-4-({[1-(3-Amidino-benzyl)-4-methoxy-1H-indole-2-carbonyl]-amino}-phenyl-methyl)-1-methyl-pyridinium trifluoroacetate trifluoroacetic acid salt, trifluoroacetate trifluoroacetic acid …], 110 nM.
In the case of `N=C(N)c1cccc(Cn2c(C(=O)NCc3cc(Cl)cc(Cl)c3)cc3c(O)cccc32)c1` [Example 120], the Ki turned out to be 4.8 nM.
Same read-out and setting: to `N=C(N)c1cccc(CNC(=O)c2c(Cl)c3ccccc3n2Cc2cccc(C(=N)N)c2)c1` [Example 115] belongs 9 nM; to `C[N+](C)(C)Cc1ccc(CNC(=O)c2cc3ccccc3n2Cc2cccc(C(=N)N)c2)cc1` [Example 6, [4-({[1-(3-Amidino-benzyl)-1H-indole-2-carbonyl]-amino}-methyl)-benzyl]-trimethyl-ammonium trifluoroacetate trifluoroacetic acid salt, trifluoroacetate trifluoroacetic acid …], 400 nM.

Tested on in the next data set: not given
Test: not given
Turning to `Cc1cccc2c1cc(C(=O)NCc1cccc(C(=N)N)c1)n2Cc1cccc(C(=N)N)c1.O=C(O)C(F)(F)F.O=C(O)C(F)(F)F` [Example 47, 1-(3-Amidino-benzyl)-4-methyl-1H-indole-2-carboxylic acid 3-amidino-benzyl amide trifluoroacetic acid salt], the melting point (usually the temperature of the solid-liquid transition) lay within 242 to 243 °C.
`COc1cccc2c1cc(C(=O)NCCc1cc[n+](C)cc1)n2Cc1cccc(C(=N)N)c1.O=C(O)C(F)(F)F.O=C([O-])C(F)(F)F`: the melting point was 164 °C (dec.).
Still for that read-out and setting: in the case of `C[N+](C)(Cc1ccccc1)c1ccc(CNC(=O)c2cc3cc(F)ccc3n2Cc2cccc(C(=N)N)c2)cc1.Cl.[Cl-]` it was 136 °C; in that of `COc1cccc2c1cc(C(=O)NC(c1ccccc1)c1cc[n+](C)cc1)n2Cc1cccc(C(=N)N)c1.O=C(O)C(F)(F)F.O=C([O-])C(F)(F)F` (racemic) [Example 24, (RS)-4-({[1-(3-Amidino-benzyl)-4-methoxy-1H-indole-2-carbonyl]-amino}-phenyl-methyl)-1-methyl-pyridinium trifluoroacetate trifluoroacetic acid salt], 135 °C; in that of `COc1cccc2c1cc(C(=O)NCCc1ccc(O)cc1)n2Cc1cccc(/C(N)=N/O)c1` [Example 51, 1-(3-Hydroxyamidino-benzyl)-4-methoxy-1H-indole-2-carboxylic acid 2-(4-hydroxy-phenyl)-ethyl amide], 173 to 175 °C (dec.).
Turning to `Cc1cccc2c1cc(C(=O)NCc1ccc([N+](C)(C)Cc3ccccc3)cc1)n2Cc1cccc(C(=N)N)c1.O=C(O)C(F)(F)F.O=C([O-])C(F)(F)F`, the melting point was 113 °C (dec.).
Still for that read-out and setting: in the case of `Cc1cccc2c1cc(C(=O)NCc1ccc(N(C)C)cc1)n2Cc1cccc(C(=N)N)c1.O=C(O)C(F)(F)F.O=C(O)C(F)(F)F` it was 106 °C (dec.); in that of `C#CC[N+](C)(C)c1ccc(CNC(=O)c2cc3cc(F)ccc3n2Cc2cccc(C(=N)N)c2)cc1.CC(=O)O.CC(=O)[O-]`, 109 °C (dec.); in that of `N=C(N)c1cccc(Cn2c(C(=O)NCCc3ccc(Cl)cc3Cl)cc3c(O)cccc32)c1.O=C(O)C(F)(F)F`, 144 °C.
Same read-out and setting: to `N=C(N)c1cccc(CNC(=O)c2c(Cl)c3ccccc3n2Cc2cccc(C(=N)N)c2)c1` (as salt: trifluoroacetic acid salt) [Example 115] belongs 227 °C; to `N=C(N)c1cccc(CNC(=O)c2cc3cc(OCc4ccccc4)ccc3n2Cc2cccc(C(=N)N)c2)c1` (as salt: hydroiodid) [Example 59, 1-(3-Amidino-benzyl)-5-benzyloxy-1H-indole-2-carboxylic acid 3-amidino-benzylamide dihydroiodide], 138 °C (dec.).
As to `CC(=O)O.CC(=O)O.Cc1cccc2c1cc(C(=O)OCc1cccc(C(=N)N)c1)n2Cc1cccc(C(=N)N)c1`, the melting point was 53 °C (dec.).
The same measure, in the same setting: in the case of `C[N+](C)(C)c1ccc(CNC(=O)c2cc3cc(OCc4ccccc4)ccc3n2Cc2cccc(C(=N)N)c2)cc1.O=C(O)C(F)(F)F.O=C([O-])C(F)(F)F` [Example 56, [4-({[5-Benzyloxy-1-(3-amidino-benzyl)-1H-indole-2-carbonyl]-amino}-methyl)-phenyl]-trimethyl-ammonium trifluoroacetate trifluoroacetic acid salt] it was 60 °C (dec.); in that of `CC(=O)O.CCOC(=O)c1cc2c(C)cccc2n1Cc1cccc(C(=N)N)c1`, 187 °C (dec.).
The same measure, in the same setting: in the case of `CC(=O)O.C[N+](C)(C)c1ccc(CNC(=O)c2cc3cc(S(C)(=O)=O)ccc3n2Cc2cccc(C(=N)N)c2)cc1.O=C([O-])C(F)(F)F` it was 70 °C (dec.).
Regarding `CC(=O)O.CC(=O)[O-].C[N+](C)(C)c1ccc(CNC(=O)c2cc3cc(F)ccc3n2Cc2cccc(C(=N)N)c2)cc1`, the melting point is 172 °C (dec.).
In the case of `CC(=O)O.CC(=O)[O-].COc1ccc2c(c1)cc(C(=O)NCc1ccc([N+](C)(C)C)cc1)n2Cc1cccc(C(=N)N)c1`, the melting point is 94 °C (dec.).
The same measure, in the same setting: to `CN(C)c1ccc(CNC(=O)c2cc3ccccc3n2Cc2cccnc2)cc1` belongs 108 to 110 °C; to `N=C(N)c1cccc(CNC(=O)Cc2cn(Cc3cccc(C(=N)N)c3)c3ccccc23)c1.O=C(O)C(F)(F)F.O=C(O)C(F)(F)F`, 196 °C (dec.); to `CC(=O)O.C[C@@H](NC(=O)c1cc2cc(OCc3ccccc3)ccc2n1Cc1cccc(C(=N)N)c1)c1ccccc1`, 72 °C (dec.).
On the same count and under the same terms, to `CC(=O)O.CC(=O)[O-].C[N+](C)(C)c1ccc(CNC(=O)c2cc3cc(F)ccc3n2Cc2cccc(C3=NCCN3)c2)cc1` belongs 51 °C (dec.); to `N/C(=N\O)c1cccc(COC(=O)c2cc3ccccc3n2Cc2cccc(/C(N)=N/O)c2)c1` [Example 53, 1-(3-Hydroxyamidino-benzyl)-1H-indole-2-carboxylic acid (3-hydroxyamidino-benzyl)ester], 114 to 116 °C.
